Columns and labels:
Experiment in all cases: relative viability (nuclei count vs DMSO), 5 days (fraction); higher = more cells survive
Cediranib + Decitabine = compound: COc1cc2c(Oc3ccc4[nH]c(C)cc4c3F)ncnc2cc1OCCCN1CCCC1 [Cediranib] + Nc1ncn([C@H]2C[C@H](O)[C@@H](CO)O2)c(=O)n1 [Decitabine] (partner 2 µM)
In short: (§1)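 Lung cancer cell lines in 1536-well plates got either a single drug or a fixed anchor-drug dose together with five library-drug doses (not always all listed) in √10 steps, by pin tool, on the day after seeding. Nuclei were counted after 5 days, and relative viability is the treated-to-vehicle ratio of nuclei counts. Values are medians of duplicate plates.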

Cediranib + Palbociclib = compound: COc1cc2c(Oc3ccc4[nH]c(C)cc4c3F)ncnc2cc1OCCCN1CCCC1 [Cediranib] + CC(=O)c1c(C)c2cnc(Nc3ccc(N4CCNCC4)cn3)nc2n(C2CCCC2)c1=O [Palbociclib] (partner 0.5 µM)
In short: as §1

[1] = compound: O=C(C[C@H]1NCCC[C@@H]1O)Cn1cnc2cc(Br)c(Cl)cc2c1=O (racemic) [Halofuginone] + N=C(N)NC(=N)NCCc1ccccc1 [Phenformin] (partner 250 µM)
In short: as §1

Halofuginone + Olaparib = compound: O=C(C[C@H]1NCCC[C@@H]1O)Cn1cnc2cc(Br)c(Cl)cc2c1=O (racemic) [Halofuginone] + O=C(c1cc(Cc2n[nH]c(=O)c3ccccc23)ccc1F)N1CCN(C(=O)C2CC2)CC1 [Olaparib] (partner 8 µM)
In short: as §1

Cell Line	relative viability (Cediranib + Decitabine; first compound 0.04 µM)	relative viability (Cediranib + Decitabine; first compound 0.1265 µM)	relative viability (Cediranib + Decitabine; first compound 0.4 µM)	relative viability (Cediranib + Decitabine; first compound 1.265 µM)	relative viability (Cediranib + Decitabine; first compound 4 µM)	relative viability (Cediranib + Palbociclib; first compound 0.04 µM)	relative viability (Cediranib + Palbociclib; first compound 0.1265 µM)	relative viability (Cediranib + Palbociclib; first compound 0.4 µM)	relative viability (Cediranib + Palbociclib; first compound 1.265 µM)	relative viability (Cediranib + Palbociclib; first compound 4 µM)	relative viability ([1]; first compound 0.001 µM)	relative viability ([1]; first compound 0.003162 µM)	relative viability ([1]; first compound 0.01 µM)	relative viability ([1]; first compound 0.03162 µM)	relative viability ([1]; first compound 0.1 µM)	relative viability (Halofuginone + Olaparib; first compound 0.001 µM)	relative viability (Halofuginone + Olaparib; first compound 0.003162 µM)	relative viability (Halofuginone + Olaparib; first compound 0.01 µM)	relative viability (Halofuginone + Olaparib; first compound 0.03162 µM)	relative viability (Halofuginone + Olaparib; first compound 0.1 µM)
NCI-H358	0.214	0.256	0.215	0.186	0.213	0.142	0.177	0.129	0.13	0.14	0.303	0.312	0.261	0.189	0.079	0.653	0.556	0.459	0.26	0.124
NCI-H441	0.288	0.234	0.275	0.251	0.286	0.202	0.258	0.22	0.205	0.275	0.976	1.05	0.87	0.839	0.564	0.591	0.537	0.56	0.455	0.238
NCI-H460	0.505	0.47	0.485	0.479	0.587	0.196	0.175	0.21	0.161	0.202	0.512	0.549	0.543	0.493	0.126	0.417	0.416	0.466	0.415	0.083
NCI-H520	0.572	0.588	0.502	0.488	0.459	0.262	0.22	0.175	0.162	0.179	0.606	0.78	0.569	0.582	0.193	0.324	0.291	0.303	0.378	0.187
NCI-H522	0.702	0.746	0.76	0.661	0.656	1.04	0.899	0.891	0.998	1.07	0.73	0.653	0.649	0.648	0.657	0.621	0.665	0.631	0.672	0.628
NCI-H647	0.415	0.414	0.448	0.349	0.405	0.349	0.385	0.336	0.457	0.448	0.659	0.642	0.544	0.368	0.195	0.637	0.746	0.517	0.442	0.11
NCI-H650	0.315	0.271	0.302	0.302	0.348	0.381	0.321	0.334	0.34	0.308	0.507	0.501	0.437	0.424	0.374	0.395	0.389	0.408	0.36	0.286
NCI-H661	0.663	0.598	0.529	0.531	0.588	0.452	0.441	0.405	0.391	0.442	0.296	0.298	0.295	0.274	0.284	0.797	0.74	0.671	0.666	0.566
NCI-H727	0.818	0.692	0.793	0.894	0.909	0.649	0.736	0.703	0.616	0.644	0.784	0.577	0.422	0.628	0.317	0.79	0.683	0.787	0.727	0.518
NCI-H838	0.497	0.376	0.432	0.383	0.506	0.229	0.228	0.218	0.181	0.214	0.668	0.713	0.525	0.347	0.199	0.817	0.784	0.734	0.527	0.107
NCI-H1355	0.331	0.359	0.353	0.367	0.429	0.413	0.426	0.367	0.39	0.423	0.456	0.503	0.429	0.441	0.407	0.785	0.805	0.611	0.754	0.7
NCI-H1395	0.717	0.769	0.675	0.712	0.77	0.622	0.615	0.629	0.623	0.535	0.457	0.464	0.442	0.444	0.334	0.462	0.469	0.471	0.433	0.388
NCI-H1437	0.67	0.602	0.621	0.562	0.639	0.32	0.305	0.291	0.349	0.335	0.329	0.308	0.3	0.297	0.258	0.649	0.653	0.619	0.616	0.456
NCI-H1650	0.408	0.482	0.354	0.496	0.385	0.421	0.328	0.304	0.404	0.334	0.495	0.467	0.413	0.442	0.188	0.95	0.806	0.836	0.677	0.538
NCI-H1651	0.482	0.538	0.669	0.542	0.652	0.534	0.551	0.499	0.523	0.527	0.377	0.34	0.333	0.35	0.276	0.177	0.194	0.2	0.178	0.176
NCI-H1666	0.738	0.624	0.728	0.87	0.727	0.681	0.61	0.636	0.644	0.658	0.587	0.612	0.562	0.56	0.475	0.758	0.785	0.714	0.789	0.705

From the supplement of paper PMC10307832
